Tests used:
[1] = system: β-adrenergic receptor; test: Sympathetic stimulation of beating rate with isoproterenol; assay type: cell-based, rat; conditions: 1 μM isoproterenol
Procedure: (§1) Seeded cardiomyocytes in Tyrode's solution were loaded with Ca^2+ indicators (10 μM Fluo-3/AM for cardiomyocytes; Calbiochem, San Diego, CA, USA) and incubated at room temperature for 30 minutes in the dark. Fluorescence imaging was performed with a laser scanning confocal microscope (Olympus IX71, Olympus America). The fluorescence density (F) was normalized against the baseline fluorescence (F0) to determine the transient [Ca^2+]i changes, which had excluded variations in the fluorescence intensity because of different volumes of injected dye. Offline analysis was performed using Olympus IX71 and ImageJ.
Isoproterenol is a non-selective β-adrenergic receptor agonist, which is used for pharmacological sympathetic stimulation to evaluate the physiological sympathetic regulation of sinus node. In this example, the functional regulations of autonomic neurotransmitters in SF-treated cardiomyocytes were investigated using the isoproterenol treatment (1 μM).

[2] = target: T1, HCN4 (Rattus norvegicus, UniProt Q9JKA7); test: Effect of HCN4 inhibitor on spontaneous beating rate (calcium transient cycling); assay type: cell-based; conditions: 3 μM ivabradine
T1 construct: endogenous in cells; host or cells: NRVMs (primary neonatal rat ventricular cardiomyocytes) on silk fibroin film or fibronectin control
T1 sequence (Q9JKA7 1-1198): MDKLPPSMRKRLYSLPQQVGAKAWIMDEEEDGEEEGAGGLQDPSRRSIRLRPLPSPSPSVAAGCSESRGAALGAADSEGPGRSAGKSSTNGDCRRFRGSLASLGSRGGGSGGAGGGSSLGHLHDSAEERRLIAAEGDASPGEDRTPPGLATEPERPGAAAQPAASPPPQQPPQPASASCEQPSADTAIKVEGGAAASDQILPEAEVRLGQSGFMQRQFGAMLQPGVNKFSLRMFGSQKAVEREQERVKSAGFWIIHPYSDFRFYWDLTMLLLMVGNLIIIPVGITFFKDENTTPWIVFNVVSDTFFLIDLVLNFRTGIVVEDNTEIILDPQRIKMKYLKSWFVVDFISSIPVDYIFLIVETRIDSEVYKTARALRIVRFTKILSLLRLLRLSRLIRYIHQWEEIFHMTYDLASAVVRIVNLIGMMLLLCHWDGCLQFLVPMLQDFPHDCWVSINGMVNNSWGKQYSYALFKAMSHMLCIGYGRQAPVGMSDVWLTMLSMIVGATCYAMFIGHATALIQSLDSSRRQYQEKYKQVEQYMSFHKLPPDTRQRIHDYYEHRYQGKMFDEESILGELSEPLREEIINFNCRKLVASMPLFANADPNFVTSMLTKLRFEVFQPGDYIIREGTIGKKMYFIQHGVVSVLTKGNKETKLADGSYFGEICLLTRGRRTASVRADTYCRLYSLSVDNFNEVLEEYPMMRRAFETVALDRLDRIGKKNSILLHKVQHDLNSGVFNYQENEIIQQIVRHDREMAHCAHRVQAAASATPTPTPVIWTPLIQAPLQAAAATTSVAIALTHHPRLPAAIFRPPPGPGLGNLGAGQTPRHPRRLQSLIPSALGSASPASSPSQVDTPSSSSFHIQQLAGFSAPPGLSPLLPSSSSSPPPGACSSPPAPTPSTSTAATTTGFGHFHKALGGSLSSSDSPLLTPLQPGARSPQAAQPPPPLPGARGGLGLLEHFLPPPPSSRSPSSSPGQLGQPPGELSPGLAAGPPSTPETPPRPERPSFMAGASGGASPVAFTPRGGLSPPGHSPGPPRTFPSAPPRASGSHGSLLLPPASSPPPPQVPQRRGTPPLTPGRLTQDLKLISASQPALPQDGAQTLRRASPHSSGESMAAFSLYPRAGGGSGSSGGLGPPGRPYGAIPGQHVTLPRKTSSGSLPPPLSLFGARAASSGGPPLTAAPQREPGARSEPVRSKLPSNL
Procedure: as §1
The spontaneous beating is tightly regulated by HCN4 channels in native SAN pacemakers. Therefore, in this example, cells from Example 1 were treated with 3 μM ivabradine, a selective HCN4 inhibitor, to evaluate the impact of HCN4 on the function of SF-treated cardiomyocytes.

## CC(C)NCC(O)c1ccc(O)c(O)c1 (stereo not drawn) [isoproterenol]
[1]; SF-treated cardiomyocytes, n=10, P=0.001 vs control
  beating rate: 162.4±9.6 bpm
[1]; SF-treated cells, n=10, P=0.02 vs control
  increment of beating rate without vs with isoproterenol: 87.1±12.4 bpm
[1]; control cells
  beating rate: 87.6±14.7 bpm
  increment of beating rate without vs with isoproterenol: 49.2±8.3 bpm

## COc1cc2c(cc1OC)CC(=O)N(CCCN(C)C[C@H]1Cc3cc(OC)c(OC)cc31)CC2 [ivabradine]
[2]; SF-treated cardiomyocytes, vs baseline, n=15, P=0.002
  suppression of beating rate (cycling rate of spontaneous calcium transient): 57%
[2]; control cells, n=32, P=0.24
  beating rate vs baseline: did not differ significantly

Reference: patent US11993786B2, “Methods and compositions for generating pacemaker cells” (TAIPEI VETERANS GENERAL HOSPITAL, priority 2017, dated 2024)
